The values that follow come from US7618972B2, “Substituted triazole derivatives as oxytocin antagonists” (Pfizer Inc, priority 2005, dated 2009).

The term Ki denotes the equilibrium dissociation constant of an inhibitor or competing ligand from its target. A higher Ki goes with a looser hold on the target.

For the assay, the target named is T1, oxytocin receptor (CHO-OTR/NFAT-β-Lactamase cells) (Homo sapiens, UniProt P30559).
T1 construct: expressed in transfected cells; host or cells: CHO-OTR cell line, further transfected with the NFAT-β-lactamase reporter construct
T1 sequence (P30559 1-389): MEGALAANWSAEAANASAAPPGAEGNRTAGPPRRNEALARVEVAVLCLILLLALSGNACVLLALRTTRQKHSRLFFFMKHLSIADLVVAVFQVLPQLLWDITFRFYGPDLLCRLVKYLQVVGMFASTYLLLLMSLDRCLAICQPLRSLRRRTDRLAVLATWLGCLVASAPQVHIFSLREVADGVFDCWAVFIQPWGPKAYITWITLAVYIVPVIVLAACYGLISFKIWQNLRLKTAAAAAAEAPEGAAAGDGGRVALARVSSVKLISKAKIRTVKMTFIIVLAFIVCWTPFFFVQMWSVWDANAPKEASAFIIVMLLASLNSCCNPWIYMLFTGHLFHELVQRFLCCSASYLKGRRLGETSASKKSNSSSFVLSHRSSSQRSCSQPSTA
In words: Oxytocin Receptor Beta-Lactamase Assay. It is filed as cell-based. The settings on record: oxytocin antagonist activity, n=3. As for the experimental part:
A suitable assay for determining the oxytocin antagonist activity of a compound is detailed herein below.
Oxytocin Receptor Beta-Lactamase Assay
Cells used are CHO-OTR/NFAT-β-Lactamase. The NFAT-β-lactamase expression construct was transfected into the CHO-OTR cell line and clonal populations were isolated via fluorescence activated cell sorting (FACS). An appropriate clone was selected to develop the assay. […]
Cells grown at 80-90% confluence were harvested and counted. […]
Preparation of 1 ml of 6× Loading Buffer with Enhanced Loading Protocol (this requires scale-up according to number of plates to be screened) • 12 μl of solution A (1 mM CCF4-AM in Dry DMSO) was added to 60 μl of solution B (100 mg/ml Pluronic-F127 in DMSO+0.1% Acetic Acid) and vortexed. • The resulting solution was added to […] of solution C (24% w/w PEG400, 18% TR40 v/v in water). • 75 μl of solution D was added (200 mM probenecid in 200 mM NaOH). • 10 μl of 6× Loading Buffer was added to all wells and incubated for 1.5 hrs-2 hrs at room temperature in the dark. • The plates were read using an LJL Analyst, Excitation 405 nm, Emission 450 nm and 530 nm, gain optimal, lagtime 0.40 μs integration, 4 flashes, bottom reading.

For the molecule `COc1ccc(-n2c(C)nnc2-c2cnc(-c3ccc(F)cc3Cl)cn2)cn1` [Example 1, 2-(2-Chloro-4-fluoro-phenyl)-5-[4-(6-methoxy-pyridin-3-yl)-5-methyl-4H-[1,2,4]triazol-3-yl]-pyrazine], the Ki was 5.4 nM. In other words, the single-digit nanomolar range.
